The values that follow come from ChEMBL document CHEMBL4651402, “Screening of ~5500 FDA-approved drugs and clinical candidates for anti-SARS-CoV-2 activity” (2021).

Counter-ions that a name gives are not always drawn.

For one assay, the system named is SARS-CoV-2. As to the kind of experiment: microbe, parasite or virus in culture. The note with it: Severe acute respiratory syndrome coronavirus 2, Vero C1008, 48 h.
Consider `Cn1cc(C2=C(c3cn(C4CCN(Cc5ccccn5)CC4)c4ccccc34)C(=O)NC2=O)c2ccccc21` [ENZASTAURIN], for which the IC50 is above 20 µM.

As to `OC[C@@H](O)[C@@H](O)[C@H](O)[C@@H](O)CO` [SORBITOL], the IC50 is above 20 µM.

For the compound `O=C(O)C(Cl)Cl` [DICHLOROACETIC ACID], the IC50 was above 20 µM.

Compound `COc1ccc(-c2ccc3ncc4c(c3c2)n(-c2ccc(N3CCNCC3)c(C(F)(F)F)c2)c(=O)n4C)cn1` [BGT-226 FREE BASE] came in with an IC50 above 20 µM.

The compound `Cc1cc2c(s1)Nc1ccccc1N=C2N1CCN(C)CC1` [OLANZAPINE] showed an IC50 above 20 µM.

Regarding `COC(=O)OC[C@H]1O[C@@H](Oc2cc(C)cc(O)c2C(=O)CCc2ccc3occc3c2)[C@H](O)[C@@H](O)[C@@H]1O`, the IC50 is above 20 µM.

Consider `Cc1nnnn1N=Cc1ccc(O)c(C(c2ccc(O)cc2)c2cc(C=Nn3nnnc3C)ccc2O)c1` (configuration not stated) [VP-14637], for which the IC50 is above 20 µM.

For the compound `CC(CC1c2ccccc2CCc2ccccc21)CN(C)C` (configuration not stated) [BUTRIPTYLINE], the IC50 was above 20 µM.

Consider `CN(C)CC/C=C1\c2ccccc2COc2ccccc21` [E-DOXEPIN], for which the IC50 is above 20 µM.

As to `CC(=O)Oc1cc(OC(C)CCCc2ccccc2)cc2c1[C@@H]1C[C@H](O)CC[C@H]1[C@H](C)N2` (some centres not stated) [NANTRADOL HYDROCHLORIDE], the IC50 is above 20 µM.

The compound `C[N+]1(C)[C@@H]2CC[C@@H]1CC(OC(=O)C(CO)c1ccccc1)C2` (some centres not stated) displayed an IC50 above 20 µM.

Consider `CN1C(=O)NC(=O)C(C)(C2=CCCCC2)C1=O` (configuration not stated) [HEXOBARBITAL], for which the IC50 was above 20 µM.

Consider `COc1ccccc1OCC(O)CNC(C)C` (configuration not stated) [MOPROLOL], for which the IC50 is above 20 µM.

As to `CCOC(=O)C(CCc1ccccc1)NC(C)C(=O)N1CC2(CC1C(=O)O)SCCS2` (configuration not stated), the IC50 was above 20 µM.

With `CC1(COc2ccc3c(c2)ncn3-c2ccc3cccc(N4CCC(N)CC4)c3n2)COC1` [CRENOLANIB], the IC50 was above 20 µM.

`CC(=O)C1CCC2C3CCC4=CC(=O)CCC4C3CCC12C` (configuration not stated) yielded an IC50 above 20 µM.

In turn, `CC(N)CCCC(C)(C)O` (configuration not stated) [HEPTAMINOL] displayed an IC50 above 20 µM.

On to `CCC(C(=O)OCCOCCN(CC)CC)c1ccccc1` (configuration not stated) [BUTAMIRATE], for which the IC50 is above 20 µM.

The compound `C=C1[C@H](CO)[C@@H](O)C[C@@H]1n1cnc2c(=O)[nH]c(N)nc21` returned an IC50 above 20 µM.

`CC(C)(C)CC(C)(C)c1ccc(OCOCCOCCO)c(Cc2cc(C(C)(C)CC(C)(C)C)cc(Cc3cc(C(C)(C)CC(C)(C)C)ccc3OCOCCOCCO)c2OCOCCOCCO)c1`: the IC50 is above 20 µM.

The compound `Nc1c(Br)cc(Br)cc1CN[C@H]1CC[C@H](O)CC1` [AMBROXOL] displayed an IC50 above 20 µM.

`Nc1nc(F)nc2c1ncn2[C@@H]1O[C@H](COP(=O)(O)O)[C@@H](O)[C@@H]1O` [FLUDARABINE PHOSPHATE]: the IC50 is above 20 µM.

For the compound `O=c1cc(-c2ccc(O)c(O)c2)oc2cc(O)cc(O)c12` [LUTEOLIN], the IC50 was above 20 µM.

`C[C@H]1C[C@H]2[C@@H]3CCC4=CC(=O)C=C[C@]4(C)[C@@]3(Cl)[C@@H](O)C[C@]2(C)[C@@]1(O)C(=O)CO` [BECLOMETHASONE]: the IC50 is above 20 µM.

On to `O=C1CCN2C(=C1C(=O)NC1CCN(CCCn3c(=O)[nH]c4ccccc43)CC1)Nc1ccccc12`, for which the IC50 is above 20 µM.

As for `COc1cccc(Nc2ncnn3ccc(CN4CC[C@@H](N)[C@H](O)C4)c23)c1` [BMS-690514], the IC50 is above 20 µM.

`COC(=O)Nc1nc2cc(C(=O)c3cccs3)ccc2[nH]1` [NOCODAZOLE] returned an IC50 above 20 µM.

`CN1CCc2cc(Cl)c(O)cc2[C@@H](c2ccccc2)C1` [SCH-23390] gave an IC50 above 20 µM.

Compound `Cc1ccc2c(=O)c3cccc(CC(=O)O)c3oc2c1C` [VADIMEZAN] returned an IC50 above 20 µM.

`C1N2CN3CN1CN(C2)C3` [METHENAMINE]: the IC50 is above 20 µM.

The compound `CC(C)=CCC/C(C)=C/CC1=C(C)C(=O)c2ccccc2C1=O` [MENAQUINONE-2] came in with an IC50 above 20 µM.

The same assay, now with this note: Severe acute respiratory syndrome coronavirus 2, Vero C1008, 48 h, read-out: pIC50 (converted).
In the case of `Cn1cc(C2=C(c3cn(C4CCN(Cc5ccccn5)CC4)c4ccccc34)C(=O)NC2=O)c2ccccc21` [ENZASTAURIN], the IC50 is above 20 µM.

For `OC[C@@H](O)[C@@H](O)[C@H](O)[C@@H](O)CO` [SORBITOL], the IC50 is above 20 µM.

In the case of `O=C(O)C(Cl)Cl` [DICHLOROACETIC ACID], the IC50 is above 20 µM.

For `COc1ccc(-c2ccc3ncc4c(c3c2)n(-c2ccc(N3CCNCC3)c(C(F)(F)F)c2)c(=O)n4C)cn1` [BGT-226 FREE BASE], the IC50 was above 20 µM.

Take `Cc1cc2c(s1)Nc1ccccc1N=C2N1CCN(C)CC1` [OLANZAPINE]: the IC50 is above 20 µM.

With `COC(=O)OC[C@H]1O[C@@H](Oc2cc(C)cc(O)c2C(=O)CCc2ccc3occc3c2)[C@H](O)[C@@H](O)[C@@H]1O`, the IC50 was above 20 µM.

For `Cc1nnnn1N=Cc1ccc(O)c(C(c2ccc(O)cc2)c2cc(C=Nn3nnnc3C)ccc2O)c1` (configuration not stated) [VP-14637], the IC50 was above 20 µM.

In the case of `CC(CC1c2ccccc2CCc2ccccc21)CN(C)C` (configuration not stated) [BUTRIPTYLINE], the IC50 is above 20 µM.

In the case of `CN(C)CC/C=C1\c2ccccc2COc2ccccc21` [E-DOXEPIN], the IC50 was above 20 µM.

Take `CC(=O)Oc1cc(OC(C)CCCc2ccccc2)cc2c1[C@@H]1C[C@H](O)CC[C@H]1[C@H](C)N2` (some centres not stated) [NANTRADOL HYDROCHLORIDE]: the IC50 is above 20 µM.

In the case of `C[N+]1(C)[C@@H]2CC[C@@H]1CC(OC(=O)C(CO)c1ccccc1)C2` (some centres not stated), the IC50 is above 20 µM.

Turning to `CN1C(=O)NC(=O)C(C)(C2=CCCCC2)C1=O` (configuration not stated) [HEXOBARBITAL], the IC50 is above 20 µM.

Turning to `COc1ccccc1OCC(O)CNC(C)C` (configuration not stated) [MOPROLOL], the IC50 was above 20 µM.

On to `CCOC(=O)C(CCc1ccccc1)NC(C)C(=O)N1CC2(CC1C(=O)O)SCCS2` (configuration not stated), for which the IC50 is above 20 µM.

Regarding `CC1(COc2ccc3c(c2)ncn3-c2ccc3cccc(N4CCC(N)CC4)c3n2)COC1` [CRENOLANIB], the IC50 was above 20 µM.

In the case of `CC(=O)C1CCC2C3CCC4=CC(=O)CCC4C3CCC12C` (configuration not stated), the IC50 is above 20 µM.

For the compound `CC(N)CCCC(C)(C)O` (configuration not stated) [HEPTAMINOL], the IC50 is above 20 µM.

Consider `CCC(C(=O)OCCOCCN(CC)CC)c1ccccc1` (configuration not stated) [BUTAMIRATE], for which the IC50 was above 20 µM.

Regarding `C=C1[C@H](CO)[C@@H](O)C[C@@H]1n1cnc2c(=O)[nH]c(N)nc21`, the IC50 is above 20 µM.

As to `CC(C)(C)CC(C)(C)c1ccc(OCOCCOCCO)c(Cc2cc(C(C)(C)CC(C)(C)C)cc(Cc3cc(C(C)(C)CC(C)(C)C)ccc3OCOCCOCCO)c2OCOCCOCCO)c1`, the IC50 is above 20 µM.

Turning to `Nc1c(Br)cc(Br)cc1CN[C@H]1CC[C@H](O)CC1` [AMBROXOL], the IC50 is above 20 µM.

In the case of `Nc1nc(F)nc2c1ncn2[C@@H]1O[C@H](COP(=O)(O)O)[C@@H](O)[C@@H]1O` [FLUDARABINE PHOSPHATE], the IC50 is above 20 µM.

With `O=c1cc(-c2ccc(O)c(O)c2)oc2cc(O)cc(O)c12` [LUTEOLIN], the IC50 was above 20 µM.

`C[C@H]1C[C@H]2[C@@H]3CCC4=CC(=O)C=C[C@]4(C)[C@@]3(Cl)[C@@H](O)C[C@]2(C)[C@@]1(O)C(=O)CO` [BECLOMETHASONE]: the IC50 was above 20 µM.

`O=C1CCN2C(=C1C(=O)NC1CCN(CCCn3c(=O)[nH]c4ccccc43)CC1)Nc1ccccc12`: the IC50 was above 20 µM.

Take `COc1cccc(Nc2ncnn3ccc(CN4CC[C@@H](N)[C@H](O)C4)c23)c1` [BMS-690514]: the IC50 was above 20 µM.

For `COC(=O)Nc1nc2cc(C(=O)c3cccs3)ccc2[nH]1` [NOCODAZOLE], the IC50 was above 20 µM.

On to `CN1CCc2cc(Cl)c(O)cc2[C@@H](c2ccccc2)C1` [SCH-23390], for which the IC50 is above 20 µM.

Regarding `Cc1ccc2c(=O)c3cccc(CC(=O)O)c3oc2c1C` [VADIMEZAN], the IC50 is above 20 µM.

In the case of `C1N2CN3CN1CN(C2)C3` [METHENAMINE], the IC50 is above 20 µM.

`CC(C)=CCC/C(C)=C/CC1=C(C)C(=O)c2ccccc2C1=O` [MENAQUINONE-2]: the IC50 is above 20 µM.
